Test results reported in US11369631B1, “Oral gelling liquid formulations” (UMM Rainforest Innovations, priority 2019, dated 2022).

Test: Rheological analysis of thermal gelation temperature (oscillation temperature sweep, abrupt increase in G′)
Assay type: physicochemical
Conditions: for αG, rate of change in gelation temperature as a function of additive composition: 2% w/v HPMC 2910, linear fit TGel=T0−αGx (FIG. 5)
Source text: Rheology is the most direct and reliable way to determine the sol-gel transition temperature, as well as characterize the rheological properties of both solution and subsequent gel. As a result, a rheometer was chosen to determine the sol-gel transition temperature of the HPMC solutions disclosed. Rheological properties such as dynamic moduli G′, G″, and complex viscosity η* change when the temperature is in the vicinity of the sol-gel transition. The rheometer is able to measure these properties during heating.
During the routine measurements in these studies, the following procedure was observed: (i) Each HPMC solution was placed on to the bottom Peltier plate of the Discovery Hybrid HR-2 rheometer (TA Instruments, Newcastle, Del., USA) equipped with a Peltier […] temperature system and a 50 mm parallel plate; (ii) Oscillation temperature sweep was performed to determine the effect of temperatures on complex viscosity (η*), storage modulus (G′), and loss modulus (G″) at angular frequency of 1 rad/s and stress applied was 0.4 Pa; (iii) In this study samples were heated in the range of 10-80° C. at a rate of 1° C./min. A thin layer of low-viscosity silicon oil was placed around the sample to prevent dehydration during measurements; (iv) All measurements were repeated in triplicate. The abrupt increase in G′, which is accompanied by a sharp increase in viscosity was considered to be a suitable way to define a thermal gelation temperature.
Statistical differences in the thermal gelation temperature of different hypromellose formulations containing different halide salt concentrations were determined using a one-way ANOVA test using Microsoft Excel Analysis Toolpak (Microsoft Inc., Redmond, Wash.). P values of <0.05 were considered statistically significant.

**Q.** With [F-].[Na+] [NaF, Sodium fluoride] as the compound, how does the “factor by which αG-NaF is greater than αG-NaCl” value (2% w/v HPMC 2910) read?
**A.** Its value is about 3.6 times.

**Q.** And the “αG, rate of change in gelation temperature as a function of additive composition” value?
**A.** Its value is about 14.5.

**Q.** Which “αG, rate of change in gelation temperature as a function of additive composition” value does the source give for [Cl-].[Na+] [NaCl, sodium chloride] here?
**A.** Its value is about 4.0.
